This passage reports IC100 results from ChEMBL document CHEMBL1146082, “Development of a structural model for NF-kappaB inhibition of sesquiterpene lactones using self-organizing neural networks” (J Med Chem, 2006).

The assay deals with Transcription factor p65 (Homo sapiens) (UniProt Q04206). The assay is described as follows: Inhibition of NF-kappaB DNA binding by EMSA. On the technique in general: A gel shift assay detects complexes by their altered migration in electrophoresis.
Sequence of Transcription factor p65 (Homo sapiens) (Q04206 whole entry): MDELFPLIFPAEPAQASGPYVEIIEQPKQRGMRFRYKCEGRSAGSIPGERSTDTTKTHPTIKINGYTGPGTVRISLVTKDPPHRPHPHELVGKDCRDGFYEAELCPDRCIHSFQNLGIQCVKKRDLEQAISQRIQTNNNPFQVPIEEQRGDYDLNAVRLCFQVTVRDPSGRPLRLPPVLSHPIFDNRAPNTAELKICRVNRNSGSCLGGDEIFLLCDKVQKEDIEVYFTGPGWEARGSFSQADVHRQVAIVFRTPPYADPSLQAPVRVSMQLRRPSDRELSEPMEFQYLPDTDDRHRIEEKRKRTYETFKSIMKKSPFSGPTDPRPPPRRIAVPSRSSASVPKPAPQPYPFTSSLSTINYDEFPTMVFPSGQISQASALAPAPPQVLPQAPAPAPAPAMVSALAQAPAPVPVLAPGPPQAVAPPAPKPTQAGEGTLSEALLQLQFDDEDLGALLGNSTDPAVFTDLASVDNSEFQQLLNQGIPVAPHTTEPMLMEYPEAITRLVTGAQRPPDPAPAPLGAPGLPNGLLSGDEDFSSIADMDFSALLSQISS
Compound `C=C1C(=O)O[C@H]2/C=C(\C)CC/C=C(/C)C(=O)[C@H](OC(=O)[C@@]3(C)O[C@H]3C)[C@@H]12` came in with an IC100 of 50 µM.

With `C=C(CO)C(=O)OC/C1=C\C[C@@H]2C(=C)C(=O)O[C@H]2C/C(COC(C)=O)=C/CC1`, the IC100 was found to be 50 µM.

For the compound `C=C(C)C(=O)O[C@@H]1[C@@H]2C(=C)C(=O)O[C@@H]2C[C@@H](C)[C@@H]2C=CC(=O)[C@@]12C`, the IC100 was determined as 5 µM.

As to `C=C1C(=O)O[C@@H]2/C=C(\COC(=O)C(C)C)CC/C=C(\CO)[C@H](O)C[C@@H]12`, the IC100 amounted to 100 µM.

`C=C1C(=O)O[C@@H]2C[C@@]3(C)CC(=O)C(OC(C)=O)=C(C)C3C[C@H]12` (stereo partly drawn): the IC100 stood at 100 µM.

Take `C=C(C)C(=O)O[C@H]1C[C@@]2(C)OC(=CC2=O)C(=C)[C@@H](Cl)[C@H]2OC(=O)C(=C)[C@@H]21`: the IC100 came out at 5 µM.

`C=C(C)C(=O)O[C@H]1/C(C=O)=C\CC/C(COC(C)=O)=C/[C@H]2OC(=O)C(=C)[C@@H]2[C@@H]1O` yielded an IC100 of 5 µM.

The compound `C=C1C(=O)O[C@]23C[C@H]1CCC(CO)=C2C(=O)C=C3C` registered an IC100 of 50 µM.

In turn, `C=C1C(=O)C=C2[C@H]1C[C@@H]1C(=C)C(=O)O[C@H]1C[C@@H]2C` returned an IC100 of 5 µM.

`C=C1C(=O)O[C@@H]2C[C@@H](C)[C@@H]3C=CC(=O)[C@@]3(C)[C@@H](OC(=O)C(C)C)[C@H]12` gave an IC100 of 20 µM.

`C=C(C)C(=O)O[C@@H]1/C=C(/C=O)CCCC(=C)[C@H](O)[C@H]2OC(=O)C(=C)[C@@H]21` showed an IC100 of 5 µM.

As for `C=C1C(=O)O[C@@H]2[C@H]3C(CO)=CC(=O)C3=C(C)CC[C@@H]12`, the IC100 came to 50 µM.

In turn, `C=C(C)C(=O)O[C@H]1[C@@H]2[C@H](C)C(=O)O[C@@H]2C[C@@H](C)[C@@H]2C=CC(=O)[C@]21C` yielded an IC100 of 100 µM.

In turn, `C=C1C(=O)O[C@H]2C/C(CO)=C/CC/C(COC(=O)C(C)(C)O)=C/C[C@H]12` came in with an IC100 of 50 µM.

As to `C=C(C)C(=O)O[C@H]1C/C(C)=C\[C@@]2(OC)C=C(C)[C@H](O2)[C@H]2OC(=O)C(=C)[C@@H]21`, the IC100 was 10 µM.

`C=C(C)C(=O)O[C@@H]1C[C@@]2(C)OC(=CC2=O)/C(C)=C\[C@H]2OC(=O)C(=C)[C@@H]21` showed an IC100 of 10 µM.

In turn, `C=C1C(=O)O[C@@H]2[C@H]3C(C)=CC[C@H]3[C@](C)(O)C[C@H](OC(C)=O)[C@@H]12` returned an IC100 of 20 µM.

For the compound `C=C1C(=O)O[C@@H]2C[C@@]3(C)[C@H](O)CC[C@](O)(COC(=O)C(C)C)[C@@H]3C[C@H]12`, the IC100 was 200 µM.

In turn, `C=C1C(=O)O[C@@H]2/C=C(/C)[C@]3(O)O[C@](C)(C[C@@H](OC(=O)/C(C)=C\C)[C@@H]12)C[C@@H]3O` had an IC100 of 50 µM.

`C=C1C(=O)O[C@@H]2[C@H]3C(C)=CC[C@@H](O)[C@]3(C)CC[C@@H]12`: the IC100 turned out to be 100 µM.

For the compound `C=C(CO)C(=O)OC/C1=C\C[C@@H]2C(=C)C(=O)O[C@H]2C/C(CO)=C/CC1`, the IC100 came out at 20 µM.

`C=C(C)C(=O)O[C@H]1/C(C=O)=C\CC/C(C)=C/[C@H]2OC(=O)C(=C)[C@@H]2[C@@H]1O` registered an IC100 of 5 µM.

Regarding `CC(=O)O[C@H]1[C@@H]2[C@H](C)C(=O)O[C@@H]2C[C@@H](C)[C@@H]2C=CC(=O)[C@]21C`, the IC100 was determined as 200 µM.

The compound `C=C1[C@@H]2[C@H]3OC(=O)C(=C)[C@@H]3CCC(=C)[C@@H]2C[C@@H]1OC(C)=O` yielded an IC100 of 100 µM.

The compound `C=C1C(=O)O[C@@H]2/C=C(/C)C3=CC(=O)[C@@](C)(C[C@@H](OC(=O)/C(C)=C\C)[C@@H]12)O3` yielded an IC100 of 5 µM.

For `C=C1C(=O)O[C@@H]2C[C@@H](C)[C@@H]3CCC(=O)[C@@]3(C)C[C@H]12`, the IC100 was determined as 50 µM.

Compound `C=C(C)C(=O)O[C@@H]1C[C@](C)(O)[C@@H]2C(=O)C=C(C)[C@@H]2[C@H]2OC(=O)C(=C)[C@@H]21` gave an IC100 of 50 µM.

Consider `C=C1C(=O)O[C@@H]2/C=C(\C)CC/C=C(\C)[C@@H](OC(C)=O)C[C@@H]12`, for which the IC100 stood at 200 µM.

With `C/C=C(\C)C(=O)O[C@H]1[C@@H]2[C@H](C)C(=O)O[C@@H]2C[C@@H](C)[C@@H]2C=CC(=O)[C@]21C`, the IC100 is 100 µM.

`C=C1C(=O)O[C@@H]2[C@H]3C(C)=CC[C@H]3[C@](C)(O)C[C@H](O)[C@@H]12` showed an IC100 of 100 µM.

In turn, `C=C1C(=O)O[C@@H]2/C=C(/CO)[C@@]3(O)C[C@@H](O)[C@@](C)(C[C@@H](OC(=O)/C(C)=C\C)[C@@H]12)O3` displayed an IC100 of 20 µM.

For the compound `C=C1[C@@H]2[C@H]3OC(=O)C(=C)[C@@H]3CCC(=C)[C@@H]2C[C@@H]1OC(=O)C=C(C)C`, the IC100 was determined as 200 µM.

Turning to `C=C1C(=O)O[C@@H]2C3=C(C(=O)C[C@@H]3C)[C@@H](C)CC[C@@H]12`, the IC100 turned out to be 20 µM.

`C=C1C(=O)O[C@@H]2C[C@@]3(C)[C@H](O)CC[C@@](O)(COC(=O)C(C)C)[C@@H]3C[C@H]12` showed an IC100 of 200 µM.

In the case of `C=C1C(=O)O[C@@H]2C[C@@H](C)[C@@H]3[C@H](OCC)CC(=O)[C@@]3(C)[C@H](OC(C)=O)[C@H]12`, the IC100 worked out at 50 µM.

Compound `C=C1C(=O)O[C@@H]2/C=C(/CO)C3=CC(=O)[C@@](C)(C[C@@H](OC(=O)/C(C)=C/C)[C@@H]12)O3` yielded an IC100 of 5 µM.

Turning to `C=C(C)C(=O)O[C@H]1[C@H]2C(=C)C(=O)O[C@@H]2[C@@H]2O[C@]2(C)CC/C=C(/C=O)[C@@H]1O`, the IC100 is 10 µM.

In the case of `C=C(C)C(=O)O[C@H]1C[C@@]2(C)OC(=CC2=O)C(=C)[C@@H](O)[C@H]2OC(=O)C(=C)[C@@H]21`, the IC100 stood at 10 µM.
